Type in all cases: cell-based
The subject of test [1] is Ent. cloacae MA2646. Briefly: in vitro antibacterial activity, microtitration dilution (MIC), Ent. cloacae MA2646. The conditions noted are these: Enterobacter cloacae, read-out: minimum inhibiting concentration (MIC). The text has this: (§1) The in vitro antibacterial activity, is obtained by the microtitration dilution method as described in Heifetz, et al., Antimicr. Agents & Chemother., 6, 124 (1974), which is incorporated herein by reference.
(§2) By use of the above methods, the following minimum inhibiting concentration values (MICs in μg/mL), PD50 's in mg/kg, no effect phototoxicity dose in mg/kg and the cytotoxicity IC50 in μg/mL were obtained for representative enantiomers of the invention and compounds of the prior art as shown in the table.

In test [2] the test system is Esch. coli Vogel. Put plainly: in vitro antibacterial activity, microtitration dilution (MIC), Esch. coli Vogel. The conditions noted are these: Escherichia coli, read-out: minimum inhibiting concentration (MIC).
From the text: as §1, §2

In test [3] the test system is Klebs. pneumoniae MGH-2. Briefly: in vitro antibacterial activity, microtitration dilution (MIC), Klebs. pneumoniae MGH-2. The following applies: Klebsiella pneumoniae, MGH2, read-out: minimum inhibiting concentration (MIC).
From the text: as §1, §2

The test system of test [4] is Prot. rettgeri M 1771. Put plainly: in vitro antibacterial activity, microtitration dilution (MIC), Prot. rettgeri M 1771. The conditions noted are these: Providencia rettgeri, M1771, read-out: minimum inhibiting concentration (MIC).
From the text: as §1, §2

Test [5] concerns Pseud. aeruginosa UI-18. Briefly: in vitro antibacterial activity, microtitration dilution (MIC), Pseud. aeruginosa UI-18. The conditions noted are these: Pseudomonas aeruginosa, UI18, read-out: minimum inhibiting concentration (MIC).
From the text: as §1, §2

For test [6], the system named is Staph. aureus H 228. Put plainly: in vitro antibacterial activity, microtitration dilution (MIC), Staph. aureus H 228. The following applies: Staphylococcus aureus, H228, read-out: minimum inhibiting concentration (MIC).
From the text: as §1, §2

The test system of test [7] is Staph. aureus UC-76. Briefly: in vitro antibacterial activity, microtitration dilution (MIC), Staph. aureus UC-76. The following applies: Staphylococcus aureus, UC76, read-out: minimum inhibiting concentration (MIC).
From the text: as §1, §2

Test [8] deals with Strep. faecalis MGH-2. Briefly: in vitro antibacterial activity, microtitration dilution (MIC), Strep. faecalis MGH-2. The following applies: Enterococcus faecalis, MGH2, read-out: minimum inhibiting concentration (MIC).
From the text: as §1, §2

Test [9] has as its system Strep. pheumoniae SV-1. Put plainly: in vitro antibacterial activity, microtitration dilution (MIC), Strep. pneumoniae SV-1. The conditions noted are these: Streptococcus pneumoniae, SV1, read-out: minimum inhibiting concentration (MIC).
From the text: as §1, §2

Test [10] deals with Strep. pyogenes C-203. Put plainly: in vitro antibacterial activity, microtitration dilution (MIC), Strep. pyogenes C-203. The following applies: Streptococcus pyogenes, C203, read-out: minimum inhibiting concentration (MIC).
From the text: as §1, §2

SMILES strings stand for the structures. In brackets after ≈: the same amount, converted by molar mass.

Turning to `COc1c(N2CC[C@@H]([C@@H](C)N)C2)c(F)cc2c(=O)c(C(=O)O)cn(C3CC3)c12` [Example 45, 3R,1R-7-[3-(1-aminoethyl)-1-pyrrolidinyl]-1-cyclopropyl-6-fluoro-1,4-dihydro-8-methoxy-4-oxo-3-quinolinecarboxylic acid], the MIC in test [1] is 0.05 µg/mL (≈ 0.128 µM); in [2], 0.05 µg/mL (≈ 0.128 µM); in test [3], 0.1 µg/mL (≈ 0.257 µM); in test [4] it was 0.2 µg/mL (≈ 0.514 µM); in test [5] it was 0.8 µg/mL (≈ 2.05 µM); in test [6], 0.25 µg/mL (≈ 0.642 µM). For the same compound, the MIC in test [7] is at most 0.03 µg/mL; in test [8] it was 0.025 µg/mL (≈ 0.0642 µM); in [9], 0.013 µg/mL (≈ 0.0334 µM); in [10], 0.013 µg/mL (≈ 0.0334 µM).
On to `CCN[C@@H](C)[C@H]1CCN(c2c(F)cc3c(=O)c(C(=O)O)cn(C4CC4)c3c2OC)C1` [Example 20, 3S,1S-1-cyclopropyl-6-fluoro-7-[3-(1-N-ethylaminoethyl)1-pyrrolidinyl]-8-methoxy-1,4-dihydro-4-oxo-3quinolinecarboxylic acid], for which the MIC in test [1] turned out to be 0.8 µg/mL (≈ 1.92 µM); in test [2] it was 0.8 µg/mL (≈ 1.92 µM); in [3] it was 1.6 µg/mL (≈ 3.83 µM); in [4] it was 3.1 µg/mL (≈ 7.43 µM); in test [5], 6.3 µg/mL (≈ 15.1 µM); in test [6], 0.2 µg/mL (≈ 0.479 µM). The MIC in [7] was 0.05 µg/mL (≈ 0.12 µM); in [8], 0.4 µg/mL (≈ 0.958 µM); in test [9], 0.2 µg/mL (≈ 0.479 µM); in test [10], 0.2 µg/mL (≈ 0.479 µM).
Regarding `CCN[C@@H](C)[C@@H]1CCN(c2cc3c(c(C)c2F)c(=O)c(C(=O)O)cn3C2CC2)C1` [Example 52, 3R,1S-1-cyclopropyl-7-[3-(1-N-ethylaminoethyl)-1-pyrrolidinyl]-6-fluoro-1,4-dihydro-5-methyl-4-oxo-3-quinolinecarboxylic acid], the MIC was found to be 0.4 µg/mL (≈ 0.996 µM) in test [1]; 0.4 µg/mL (≈ 0.996 µM) in [2]; 0.4 µg/mL (≈ 0.996 µM) in test [3]; 1.6 µg/mL (≈ 3.99 µM) in test [4]; 3.1 µg/mL (≈ 7.72 µM) in test [5]; 0.05 µg/mL (≈ 0.125 µM) in test [6]. The MIC was 0.013 µg/mL (≈ 0.0324 µM) in [7], 0.05 µg/mL (≈ 0.125 µM) in [8], 0.05 µg/mL (≈ 0.125 µM) in test [9] and 0.05 µg/mL (≈ 0.125 µM) in [10].
`CN[C@@H](C)[C@H]1CCN(c2nc3c(cc2F)c(=O)c(C(=O)O)cn3C2CC2)C1` [Example 24, 3S,1S-1-cyclopropyl-6-fluoro-7-[3-(1-N-methylaminoethyl)-1-pyrrolidinyl]-1,4-dihydro-4-oxo-1,8-naphthyridine-3-carboxylic acid]: the MIC was 0.4 µg/mL (≈ 1.07 µM) in test [1]; 0.2 µg/mL (≈ 0.534 µM) in [2]; 0.4 µg/mL (≈ 1.07 µM) in test [3]; 0.8 µg/mL (≈ 2.14 µM) in test [4]; 3.1 µg/mL (≈ 8.28 µM) in [5]; 0.8 µg/mL (≈ 2.14 µM) in test [6]. Moreover, the MIC in [7] was determined as 0.2 µg/mL (≈ 0.534 µM); in test [8], 0.8 µg/mL (≈ 2.14 µM); in test [9], 0.4 µg/mL (≈ 1.07 µM); in test [10], 0.4 µg/mL (≈ 1.07 µM).
`Cc1c(F)c(N2CC[C@@H]([C@H](C)N)C2)cc2c1c(=O)c(C(=O)O)cn2C1CC1` [Example 47, 3R,1S-7-[3-(1-aminoethyl)-1-pyrrolidinyl]-1-cyclopropyl-6-fluoro-1,4-dihydro-5-methyl-4-oxo-3-quinolinecarboxylic acid]: the MIC is 0.1 µg/mL (≈ 0.268 µM) in test [1]; 0.1 µg/mL (≈ 0.268 µM) in test [2]; 0.1 µg/mL (≈ 0.268 µM) in test [3]; 0.2 µg/mL (≈ 0.536 µM) in [4]; 0.8 µg/mL (≈ 2.14 µM) in test [5]; 0.025 µg/mL (≈ 0.0669 µM) in test [6]. Further, the MIC turned out to be 0.003 µg/mL (≈ 0.00803 µM) in test [7], 0.025 µg/mL (≈ 0.0669 µM) in test [8], 0.003 µg/mL (≈ 0.00803 µM) in test [9] and 0.003 µg/mL (≈ 0.00803 µM) in [10].
Regarding `CN[C@H](C)[C@H]1CCN(c2c(F)c(N)c3c(=O)c(C(=O)O)cn(C4CC4)c3c2F)C1` [Example 34, 3S,1R-5-amino-1-cyclopropyl-6,8-difluoro-7-[3-(1-N-methylaminoethyl)-1-pyrrolidinyl]-1,4-dihydro-4-oxo-3-quinolinecarboxylic acid], the MIC in test [1] stood at 0.4 µg/mL (≈ 0.984 µM); in [2], 0.4 µg/mL (≈ 0.984 µM); in test [3], 0.8 µg/mL (≈ 1.97 µM); in test [4] it was 1.6 µg/mL (≈ 3.94 µM); in test [5] it was 3.1 µg/mL (≈ 7.63 µM); in test [6], 0.8 µg/mL (≈ 1.97 µM). Besides, the MIC in [7] came to 0.4 µg/mL (≈ 0.984 µM); in test [8] it was 1.6 µg/mL (≈ 3.94 µM); in test [9], 0.8 µg/mL (≈ 1.97 µM); in [10], 1.6 µg/mL (≈ 3.94 µM).

These data come from patent publication US5563155A, “Individual stereosiomers of 7-[3-(aminoalkyl)-1-pyrrolidinyl]-quinolones and naphthyridones as antibacterial agents” (Warner-Lambert Company, priority 1995, dated 1996).
